Measured values as given in article PMC9288506, “Compounds activating VCP D1 ATPase enhance both autophagic and proteasomal neurotoxic protein clearance” (Nature Communications, 2022).

Legend:
Experiment in all cases: biochemical
Set-up in all cases: Thermo Fisher in vitro kinase panel, per cent inhibition of kinase activity at 10 uM
GSK3B (GSK3 beta) = GSK3B (GSK3 beta) (Homo sapiens, UniProt P49841)
Description: (§1) Kinase profiling of SMER28 and analogs SMER28 and analogs were tested at 10 µM in a panel of 123 kinases at ThermoFisher Scientific. Follow-up of selected kinases for SMER28 and analogs was also performed at ThermoFisher Scientific. Data are shown in Supplementary Data 2 and 3. […] An inhibition of PIK3C could induce autophagy, mediated by signaling through the AKT/mTOR axis[45].

CDK2/cyclin A = CDK2/cyclin A (Homo sapiens, UniProt P24941)
Description: as §1

PRKCQ (PKC theta) = PRKCQ (PKC theta) (Homo sapiens, UniProt Q04759)
PRKCQ (PKC theta), sequence (Q04759 whole entry): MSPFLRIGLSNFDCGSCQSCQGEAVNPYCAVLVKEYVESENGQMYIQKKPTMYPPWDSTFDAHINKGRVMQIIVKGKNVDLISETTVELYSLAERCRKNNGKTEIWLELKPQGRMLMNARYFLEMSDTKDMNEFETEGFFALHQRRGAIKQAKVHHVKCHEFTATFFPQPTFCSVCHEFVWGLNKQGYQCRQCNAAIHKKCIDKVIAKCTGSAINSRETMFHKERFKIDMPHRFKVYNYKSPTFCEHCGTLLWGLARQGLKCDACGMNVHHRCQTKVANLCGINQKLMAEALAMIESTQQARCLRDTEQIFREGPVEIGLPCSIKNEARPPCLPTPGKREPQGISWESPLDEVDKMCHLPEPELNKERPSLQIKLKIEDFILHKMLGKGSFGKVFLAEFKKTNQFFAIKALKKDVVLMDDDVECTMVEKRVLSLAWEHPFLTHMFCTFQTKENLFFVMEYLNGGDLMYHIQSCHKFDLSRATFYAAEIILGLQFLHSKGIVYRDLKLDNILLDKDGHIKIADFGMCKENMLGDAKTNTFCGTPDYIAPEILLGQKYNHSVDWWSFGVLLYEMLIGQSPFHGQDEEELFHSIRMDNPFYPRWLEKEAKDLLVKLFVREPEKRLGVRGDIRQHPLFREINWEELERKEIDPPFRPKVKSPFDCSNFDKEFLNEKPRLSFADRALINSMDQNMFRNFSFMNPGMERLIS
Description: as §1

KDR (VEGFR2) = KDR (VEGFR2) (Homo sapiens, UniProt P35968)
Description: as §1

IRAK4 = IRAK4 (Homo sapiens, UniProt Q9NWZ3)
IRAK4, sequence (Q9NWZ3 whole entry): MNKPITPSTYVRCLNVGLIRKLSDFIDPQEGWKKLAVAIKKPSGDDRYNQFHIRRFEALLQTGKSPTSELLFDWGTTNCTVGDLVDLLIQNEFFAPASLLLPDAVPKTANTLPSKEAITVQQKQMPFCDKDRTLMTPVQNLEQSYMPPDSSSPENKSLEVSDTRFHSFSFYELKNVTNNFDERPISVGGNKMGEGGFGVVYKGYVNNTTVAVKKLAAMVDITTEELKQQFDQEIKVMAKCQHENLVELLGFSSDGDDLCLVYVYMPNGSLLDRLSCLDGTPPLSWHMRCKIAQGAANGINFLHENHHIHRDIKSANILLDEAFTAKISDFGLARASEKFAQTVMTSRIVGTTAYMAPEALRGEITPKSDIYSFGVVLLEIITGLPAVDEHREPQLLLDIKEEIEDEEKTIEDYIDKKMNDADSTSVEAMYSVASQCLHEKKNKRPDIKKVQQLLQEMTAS
Description: as §1

ERBB4 (HER4) = ERBB4 (HER4) (Homo sapiens, UniProt Q15303)
Description: as §1

RPS6KA1 (RSK1) = RPS6KA1 (RSK1) (Homo sapiens, UniProt Q15418)
Description: as §1

FER = FER (Homo sapiens, UniProt P16591)
Description: as §1

PIK3C2A (PI3K-C2 alpha) = PIK3C2A (PI3K-C2 alpha) (Homo sapiens, UniProt O00443)
Description: as §1

SRC = SRC (Homo sapiens, UniProt P12931)
SRC, sequence (P12931 whole entry): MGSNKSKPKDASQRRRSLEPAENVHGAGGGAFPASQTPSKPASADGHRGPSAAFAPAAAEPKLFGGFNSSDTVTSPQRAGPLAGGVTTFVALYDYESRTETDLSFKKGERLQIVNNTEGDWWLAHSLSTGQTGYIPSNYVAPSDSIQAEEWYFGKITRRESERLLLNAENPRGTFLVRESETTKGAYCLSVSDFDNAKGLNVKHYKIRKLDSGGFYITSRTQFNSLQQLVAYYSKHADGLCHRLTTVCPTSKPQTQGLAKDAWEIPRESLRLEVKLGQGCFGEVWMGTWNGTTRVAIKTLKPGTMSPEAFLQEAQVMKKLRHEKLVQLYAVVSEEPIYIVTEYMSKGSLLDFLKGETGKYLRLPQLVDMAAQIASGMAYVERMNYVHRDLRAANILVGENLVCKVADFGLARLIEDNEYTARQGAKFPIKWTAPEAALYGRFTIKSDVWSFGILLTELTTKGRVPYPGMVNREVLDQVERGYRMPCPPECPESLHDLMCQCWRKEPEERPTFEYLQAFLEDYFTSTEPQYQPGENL
Description: as §1

DYRK2 = DYRK2 (Homo sapiens, UniProt Q92630)
Description: as §1

INSRR (IRR) = INSRR (IRR) (Homo sapiens, UniProt P14616)
Description: as §1

AKT2 (PKB beta) = AKT2 (PKB beta) (Homo sapiens, UniProt P31751)
AKT2 (PKB beta), sequence (P31751 whole entry): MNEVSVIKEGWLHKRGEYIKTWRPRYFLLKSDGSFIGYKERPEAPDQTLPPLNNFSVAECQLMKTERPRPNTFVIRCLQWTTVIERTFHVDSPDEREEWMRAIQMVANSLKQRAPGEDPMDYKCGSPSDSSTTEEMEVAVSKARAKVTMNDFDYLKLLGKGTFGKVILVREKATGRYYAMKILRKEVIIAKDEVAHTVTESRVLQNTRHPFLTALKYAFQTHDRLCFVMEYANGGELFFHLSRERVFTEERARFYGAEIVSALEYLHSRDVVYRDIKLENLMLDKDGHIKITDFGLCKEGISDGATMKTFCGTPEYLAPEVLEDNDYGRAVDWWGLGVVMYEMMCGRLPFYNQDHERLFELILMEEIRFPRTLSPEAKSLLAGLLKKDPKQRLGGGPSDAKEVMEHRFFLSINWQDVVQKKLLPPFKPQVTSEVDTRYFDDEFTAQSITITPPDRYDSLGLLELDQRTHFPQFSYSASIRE
Description: as §1

MAP2K1 (MEK1) = MAP2K1 (MEK1) (Homo sapiens, UniProt Q02750)
MAP2K1 (MEK1), sequence (Q02750 whole entry): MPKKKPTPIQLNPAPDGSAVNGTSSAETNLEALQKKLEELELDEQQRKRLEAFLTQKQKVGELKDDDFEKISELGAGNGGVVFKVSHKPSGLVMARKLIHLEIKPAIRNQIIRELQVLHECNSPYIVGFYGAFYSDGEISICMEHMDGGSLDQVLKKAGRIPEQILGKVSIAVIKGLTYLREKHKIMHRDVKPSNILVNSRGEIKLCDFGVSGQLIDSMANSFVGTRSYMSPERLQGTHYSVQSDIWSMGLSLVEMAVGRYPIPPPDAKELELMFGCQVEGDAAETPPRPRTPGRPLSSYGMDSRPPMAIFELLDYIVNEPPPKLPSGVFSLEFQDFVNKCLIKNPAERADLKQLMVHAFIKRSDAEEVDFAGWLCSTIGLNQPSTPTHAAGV
Description: as §1

EEF2K = EEF2K (Homo sapiens, UniProt O00418)
EEF2K, sequence (O00418 whole entry): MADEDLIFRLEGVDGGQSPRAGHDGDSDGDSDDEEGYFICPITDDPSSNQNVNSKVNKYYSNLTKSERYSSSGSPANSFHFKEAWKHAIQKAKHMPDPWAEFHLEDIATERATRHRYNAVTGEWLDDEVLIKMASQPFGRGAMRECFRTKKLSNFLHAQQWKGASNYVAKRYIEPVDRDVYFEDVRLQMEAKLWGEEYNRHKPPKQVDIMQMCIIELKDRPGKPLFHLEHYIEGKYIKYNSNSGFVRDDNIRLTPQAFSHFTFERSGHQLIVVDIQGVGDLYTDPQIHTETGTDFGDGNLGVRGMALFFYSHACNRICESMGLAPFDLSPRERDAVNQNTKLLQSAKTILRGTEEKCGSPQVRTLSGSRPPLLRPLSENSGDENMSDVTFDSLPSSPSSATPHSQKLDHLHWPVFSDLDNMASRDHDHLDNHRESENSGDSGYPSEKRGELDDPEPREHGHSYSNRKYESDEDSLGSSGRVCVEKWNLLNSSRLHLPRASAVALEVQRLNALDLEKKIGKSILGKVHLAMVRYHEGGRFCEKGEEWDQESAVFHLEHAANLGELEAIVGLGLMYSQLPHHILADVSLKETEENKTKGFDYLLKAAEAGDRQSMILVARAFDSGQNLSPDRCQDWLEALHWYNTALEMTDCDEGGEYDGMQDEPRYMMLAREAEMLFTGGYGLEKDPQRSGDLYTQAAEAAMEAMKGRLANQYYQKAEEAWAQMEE
Description: as §1

GSK3A (GSK3 alpha) = GSK3A (GSK3 alpha) (Homo sapiens, UniProt P49840)
Description: as §1

PI4KB (PI4K beta) = PI4KB (PI4K beta) (Homo sapiens, UniProt Q9UBF8)
Description: as §1

PAK7 (KIAA1264) = target: T1, PAK7 (KIAA1264) (Homo sapiens, UniProt Q9P286)
T1 construct: gene PAK5
T1 sequence (Q9P286 whole entry): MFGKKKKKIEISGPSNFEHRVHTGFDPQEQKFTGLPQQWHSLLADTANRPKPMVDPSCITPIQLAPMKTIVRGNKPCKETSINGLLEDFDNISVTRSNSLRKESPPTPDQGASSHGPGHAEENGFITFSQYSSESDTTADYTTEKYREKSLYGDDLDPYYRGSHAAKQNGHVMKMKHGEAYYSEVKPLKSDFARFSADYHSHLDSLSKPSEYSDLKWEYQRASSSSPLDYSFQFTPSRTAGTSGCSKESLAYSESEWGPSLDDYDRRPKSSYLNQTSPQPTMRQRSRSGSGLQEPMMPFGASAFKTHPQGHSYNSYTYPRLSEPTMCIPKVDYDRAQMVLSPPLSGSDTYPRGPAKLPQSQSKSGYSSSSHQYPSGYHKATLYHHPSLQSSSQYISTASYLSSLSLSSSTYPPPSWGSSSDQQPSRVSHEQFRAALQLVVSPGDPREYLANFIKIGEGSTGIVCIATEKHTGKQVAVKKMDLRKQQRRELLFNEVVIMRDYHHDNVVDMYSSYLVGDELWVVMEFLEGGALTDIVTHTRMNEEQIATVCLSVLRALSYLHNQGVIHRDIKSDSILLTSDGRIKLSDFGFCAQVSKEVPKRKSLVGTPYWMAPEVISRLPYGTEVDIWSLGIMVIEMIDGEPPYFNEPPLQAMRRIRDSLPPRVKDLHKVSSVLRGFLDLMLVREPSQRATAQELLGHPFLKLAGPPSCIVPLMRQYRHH
Description: as §1

CHEK1 (CHK1) = CHEK1 (CHK1) (Homo sapiens, UniProt O14757)
CHEK1 (CHK1), sequence (O14757 whole entry): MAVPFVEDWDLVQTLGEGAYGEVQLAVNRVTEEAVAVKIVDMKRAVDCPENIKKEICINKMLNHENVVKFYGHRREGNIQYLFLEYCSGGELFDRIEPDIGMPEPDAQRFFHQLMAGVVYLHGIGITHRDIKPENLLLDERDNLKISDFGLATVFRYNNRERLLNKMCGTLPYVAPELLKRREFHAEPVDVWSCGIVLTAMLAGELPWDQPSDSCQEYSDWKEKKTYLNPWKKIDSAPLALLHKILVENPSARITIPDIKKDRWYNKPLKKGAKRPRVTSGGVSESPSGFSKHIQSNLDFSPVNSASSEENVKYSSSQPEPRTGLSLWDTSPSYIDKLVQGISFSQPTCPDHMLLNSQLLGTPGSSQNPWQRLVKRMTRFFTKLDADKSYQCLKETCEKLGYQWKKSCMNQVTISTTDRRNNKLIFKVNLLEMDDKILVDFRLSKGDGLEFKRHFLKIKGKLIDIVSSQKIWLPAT
Description: as §1

MKNK2 (MNK2) = MKNK2 (MNK2) (Homo sapiens, UniProt Q9HBH9)
Description: as §1

EPHB4 = EPHB4 (Homo sapiens, UniProt P54760)
Description: as §1

EPHA5 = EPHA5 (Homo sapiens, UniProt P54756)
Description: as §1

MYLK (MLCK) = MYLK (MLCK) (Homo sapiens, UniProt Q15746)
Description: as §1

BRAF = BRAF (Homo sapiens, UniProt P15056)
Description: as §1

MAPK1 (ERK2) = MAPK1 (ERK2) (Homo sapiens, UniProt P28482)
MAPK1 (ERK2), sequence (P28482 whole entry): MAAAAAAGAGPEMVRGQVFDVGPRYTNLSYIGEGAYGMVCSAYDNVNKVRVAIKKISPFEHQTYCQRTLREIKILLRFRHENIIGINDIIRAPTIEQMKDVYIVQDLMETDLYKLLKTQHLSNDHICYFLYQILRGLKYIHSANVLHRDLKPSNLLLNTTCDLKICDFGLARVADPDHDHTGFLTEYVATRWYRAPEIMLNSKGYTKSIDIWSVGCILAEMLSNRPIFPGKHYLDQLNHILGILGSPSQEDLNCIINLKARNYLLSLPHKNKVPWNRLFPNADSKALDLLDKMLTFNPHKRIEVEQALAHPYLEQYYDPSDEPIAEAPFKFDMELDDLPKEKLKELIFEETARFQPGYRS
Description: as §1

SMILES: C=CCNc1ncnc2ccc(Br)cc12 [SMER28]
- inhibition at 10 µM (GSK3B (GSK3 beta)): 24%
- inhibition at 10 µM (CDK2/cyclin A): 15%
- inhibition at 10 µM (PRKCQ (PKC theta)): 0%
- inhibition at 10 µM (KDR (VEGFR2)): 13%
- inhibition at 10 µM (IRAK4): 68%
- inhibition at 10 µM (ERBB4 (HER4)): 10%
- inhibition at 10 µM (RPS6KA1 (RSK1)): 21%
- inhibition at 10 µM (FER): 16%
- inhibition at 10 µM (PIK3C2A (PI3K-C2 alpha)): 22%
- inhibition at 10 µM (SRC): 2%
- inhibition at 10 µM (DYRK2): 67%
- inhibition at 10 µM (INSRR (IRR)): 5%
- inhibition at 10 µM (AKT2 (PKB beta)): -8%
- inhibition at 10 µM (MAP2K1 (MEK1)): 3%
- inhibition at 10 µM (EEF2K): 2%
- inhibition at 10 µM (GSK3A (GSK3 alpha)): 23%
- inhibition at 10 µM (PI4KB (PI4K beta)): 66%
- inhibition at 10 µM (PAK7 (KIAA1264)): 7%
- inhibition at 10 µM (CHEK1 (CHK1)): -8%
- inhibition at 10 µM (MKNK2 (MNK2)): 32%
- inhibition at 10 µM (EPHB4): -1%
- inhibition at 10 µM (EPHA5): 7%
- inhibition at 10 µM (MYLK (MLCK)): 12%
- inhibition at 10 µM (BRAF): 13%
- inhibition at 10 µM (MAPK1 (ERK2)): -2%
